In PubChem BioAssay (NCI):
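Dose response: 5 concentrations. Exposure: 48 h. Format: 96-well plates. Endpoint: linear interpolation; highest concentration if not reached. Abbreviation: GI50, concentration required for 50% inhibition of growth. At the TGI there is no net growth.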

Experiments:
Test in all cases: inhibition of tumour cell growth, NCI panel, 48 h; in the data active = GI50 below about 0.43 µM; inactive = the rest
PC-3 prostate = system: PC-3 prostate
NCI-H460 lung = system: NCI-H460 lung
MALME-3M melanoma = system: MALME-3M melanoma
MDA-MB-231 breast = system: MDA-MB-231 breast
HOP-62 NSCLC = system: HOP-62 NSCLC
RXF 393 renal = system: RXF 393 renal
KM12 colon = system: KM12 colon
EKVX NSCLC = system: EKVX NSCLC
SK-OV-3 ovarian = system: SK-OV-3 ovarian
HCT-116 colon = system: HCT-116 colon
U251 CNS = system: U251 CNS
UACC-62 melanoma = system: UACC-62 melanoma
SW-620 colon = system: SW-620 colon
A498 renal = system: A498 renal
NCI/ADR-RES ovarian = system: NCI/ADR-RES ovarian
HCT-15 colon = system: HCT-15 colon
LOX IMVI melanoma = system: LOX IMVI melanoma
HL-60(TB) leukemia = system: HL-60(TB) leukemia
T-47D breast = system: T-47D breast
HCC-2998 colon = system: HCC-2998 colon
MOLT-4 leukemia = system: MOLT-4 leukemia
SF-539 CNS = system: SF-539 CNS
SF-295 CNS = system: SF-295 CNS
TK-10 renal = system: TK-10 renal
HT29 colon = system: HT29 colon
M14 melanoma = system: M14 melanoma
OVCAR-5 ovarian = system: OVCAR-5 ovarian
COLO 205 colon = system: COLO 205 colon
SNB-75 CNS = system: SNB-75 CNS
MCF7 breast = system: MCF7 breast
IGROV1 ovarian = system: IGROV1 ovarian
NCI-H522 lung = system: NCI-H522 lung
ACHN renal = system: ACHN renal
786-0 renal = system: 786-0 renal
BT-549 breast = system: BT-549 breast
NCI-H23 lung = system: NCI-H23 lung
SK-MEL-28 melanoma = system: SK-MEL-28 melanoma
NCI-H226 lung = system: NCI-H226 lung
SR leukemia = system: SR leukemia
DU-145 prostate = system: DU-145 prostate
HOP-92 NSCLC = system: HOP-92 NSCLC
UO-31 renal = system: UO-31 renal
SK-MEL-2 melanoma = system: SK-MEL-2 melanoma
OVCAR-8 ovarian = system: OVCAR-8 ovarian
SN12C renal = system: SN12C renal
SF-268 CNS = system: SF-268 CNS
CAKI-1 renal = system: CAKI-1 renal
UACC-257 melanoma = system: UACC-257 melanoma
OVCAR-3 ovarian = system: OVCAR-3 ovarian
K-562 leukemia = system: K-562 leukemia
MDA-MB-435 = system: MDA-MB-435
HS 578T breast = system: HS 578T breast
SNB-19 CNS = system: SNB-19 CNS
OVCAR-4 ovarian = system: OVCAR-4 ovarian
RPMI-8226 leukemia = system: RPMI-8226 leukemia
SK-MEL-5 melanoma = system: SK-MEL-5 melanoma
CCRF-CEM leukemia = system: CCRF-CEM leukemia
A549 NSCLC = system: A549 NSCLC

C[C@H]1[C@H](C)CC[C@]2(C(=O)O)CC[C@]3(C)C(=CC[C@@H]4[C@@]5(C)C/C(=C/c6cccnc6)[C@H](O)C(C)(C)[C@@H]5CC[C@]43C)[C@H]12
64.8 µM: TGI (OVCAR-5 ovarian)
inactive: GI50 (PC-3 prostate) 6.35 µM | GI50 (NCI-H460 lung) 8.88 µM | GI50 (MALME-3M melanoma) 18.3 µM | GI50 (MDA-MB-231 breast) 22.5 µM | GI50 (HOP-62 NSCLC) 16.4 µM | GI50 (RXF 393 renal) 13.7 µM | GI50 (KM12 colon) 7.61 µM | GI50 (EKVX NSCLC) 13.3 µM | GI50 (SK-OV-3 ovarian) 19.9 µM | GI50 (HCT-116 colon) 10.7 µM | GI50 (U251 CNS) 10.9 µM | GI50 (UACC-62 melanoma) 11.7 µM | GI50 (SW-620 colon) 20.9 µM | GI50 (A498 renal) > 100 µM | GI50 (NCI/ADR-RES ovarian) 18.5 µM | GI50 (HCT-15 colon) 10.7 µM | GI50 (LOX IMVI melanoma) 13.4 µM | GI50 (HL-60(TB) leukemia) 9.83 µM | GI50 (T-47D breast) 9.88 µM | GI50 (HCC-2998 colon) 15.7 µM | GI50 (MOLT-4 leukemia) 8.74 µM | GI50 (SF-539 CNS) 15.6 µM | GI50 (SF-295 CNS) 4.83 µM | GI50 (TK-10 renal) 28.4 µM | GI50 (HT29 colon) 14.4 µM | GI50 (M14 melanoma) 17.7 µM | GI50 (OVCAR-5 ovarian) 20.9 µM | GI50 (COLO 205 colon) 14.6 µM | GI50 (SNB-75 CNS) 28.6 µM | GI50 (MCF7 breast) 12.1 µM | GI50 (IGROV1 ovarian) 26.4 µM | GI50 (NCI-H522 lung) 13 µM | GI50 (ACHN renal) 10.2 µM | GI50 (786-0 renal) 25.9 µM | GI50 (BT-549 breast) 18.3 µM | GI50 (NCI-H23 lung) 17.4 µM | GI50 (SK-MEL-28 melanoma) 13.7 µM | GI50 (NCI-H226 lung) 15.3 µM | GI50 (SR leukemia) 20.7 µM | GI50 (DU-145 prostate) 15.4 µM | GI50 (HOP-92 NSCLC) 13.8 µM | GI50 (UO-31 renal) 12.5 µM | GI50 (SK-MEL-2 melanoma) 13.9 µM | GI50 (OVCAR-8 ovarian) 20.5 µM | GI50 (SN12C renal) 18.1 µM | GI50 (SF-268 CNS) 24.3 µM | GI50 (CAKI-1 renal) 17.8 µM | GI50 (UACC-257 melanoma) 21 µM | GI50 (OVCAR-3 ovarian) 13.5 µM | GI50 (K-562 leukemia) 6.79 µM | GI50 (MDA-MB-435) 27.6 µM | GI50 (HS 578T breast) 28.8 µM | GI50 (SNB-19 CNS) 20.5 µM | GI50 (OVCAR-4 ovarian) 43 µM | GI50 (RPMI-8226 leukemia) 6.03 µM | GI50 (SK-MEL-5 melanoma) 13.7 µM | GI50 (CCRF-CEM leukemia) 6.43 µM | GI50 (A549 NSCLC) 5.27 µM
56.8 µM: TGI (NCI-H226 lung)
94.3 µM: TGI (NCI-H522 lung)
43.5 µM: TGI (HCC-2998 colon)
68.5 µM: TGI (NCI/ADR-RES ovarian)
26.4 µM: TGI (UO-31 renal)
34.6 µM: TGI (SK-MEL-28 melanoma)
55.6 µM: TGI (HOP-62 NSCLC)
31.1 µM: TGI (OVCAR-3 ovarian)
82.8 µM: TGI (SR leukemia)
44.4 µM: TGI (SK-MEL-2 melanoma)
36.6 µM: TGI (RXF 393 renal)
28.1 µM: TGI (LOX IMVI melanoma)
40.8 µM: TGI (CCRF-CEM leukemia)
36.1 µM: TGI (KM12 colon)
41.5 µM: TGI (RPMI-8226 leukemia)
58.2 µM: TGI (MOLT-4 leukemia)
36.3 µM: TGI (SF-539 CNS)
81.2 µM: TGI (UACC-257 melanoma)
52 µM: TGI (HCT-15 colon)
72.1 µM: TGI (MDA-MB-231 breast)
67.7 µM: TGI (HOP-92 NSCLC)
35.7 µM: TGI (SK-MEL-5 melanoma)
33.9 µM: TGI (HT29 colon)
87.6 µM: TGI (EKVX NSCLC)
49 µM: TGI (M14 melanoma)
62.4 µM: TGI (A549 NSCLC)
27.8 µM: TGI (U251 CNS)
26.8 µM: TGI (HCT-116 colon)
25.8 µM: TGI (SF-295 CNS)
> 100 µM: TGI (PC-3 prostate) | TGI (SK-OV-3 ovarian) | TGI (SW-620 colon) | TGI (A498 renal) | TGI (T-47D breast) | TGI (TK-10 renal) | TGI (SNB-75 CNS) | TGI (MCF7 breast) | TGI (IGROV1 ovarian) | TGI (ACHN renal) | TGI (786-0 renal) | TGI (BT-549 breast) | TGI (NCI-H23 lung) | TGI (DU-145 prostate) | TGI (OVCAR-8 ovarian) | TGI (SF-268 CNS) | TGI (CAKI-1 renal) | TGI (K-562 leukemia) | TGI (MDA-MB-435) | TGI (HS 578T breast) | TGI (SNB-19 CNS) | TGI (OVCAR-4 ovarian)
26.6 µM: TGI (NCI-H460 lung)
97.3 µM: TGI (SN12C renal)
51.2 µM: TGI (MALME-3M melanoma)
35 µM: TGI (UACC-62 melanoma)
32.4 µM: TGI (COLO 205 colon)
32.6 µM: TGI (HL-60(TB) leukemia)
